Source: ChEMBL document CHEMBL5729761, “Polycyclic compounds as allosteric SHP2 inhibitors” (2023)

Target: T1, Tyrosine-protein phosphatase non-receptor type 11 (Homo sapiens, UniProt Q06124)
T1 sequence (Q06124 whole entry): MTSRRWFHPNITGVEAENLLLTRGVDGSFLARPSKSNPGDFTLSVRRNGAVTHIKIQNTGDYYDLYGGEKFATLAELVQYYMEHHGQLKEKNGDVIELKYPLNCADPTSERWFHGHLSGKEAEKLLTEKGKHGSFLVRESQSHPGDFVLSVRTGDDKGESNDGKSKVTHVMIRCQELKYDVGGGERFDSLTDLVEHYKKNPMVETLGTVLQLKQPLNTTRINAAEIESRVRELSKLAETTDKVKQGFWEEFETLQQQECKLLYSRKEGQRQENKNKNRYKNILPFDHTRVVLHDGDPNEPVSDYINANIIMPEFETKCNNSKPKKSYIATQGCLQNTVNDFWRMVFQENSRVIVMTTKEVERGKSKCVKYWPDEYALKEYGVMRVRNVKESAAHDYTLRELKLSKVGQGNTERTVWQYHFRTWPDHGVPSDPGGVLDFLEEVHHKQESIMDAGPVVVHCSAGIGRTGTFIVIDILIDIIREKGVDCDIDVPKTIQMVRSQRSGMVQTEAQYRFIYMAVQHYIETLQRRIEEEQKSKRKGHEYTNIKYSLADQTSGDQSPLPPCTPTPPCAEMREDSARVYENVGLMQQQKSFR
Assay: SHP2 Allosteric Inhibition Assay: The inhibition of SHP2 by compounds of the invention (concentrations varying from 0.00005-10 μM) was monitored using an assay in which 0.2 nM of SHP2 was incubated with 0.5 μM of Activating Peptide 1 (sequence: H2N LN(pY)IDLDLV(dPEG8)LST(pY)ASINFQK-amide) or Activating Peptide 2 (sequence: H2N-LN(pY)AQLWHA(dPEG8)LTI(pY)ATIRRF-amide). After 30-60-minutes incubation at 25° C., the surrogate substrate DiFMUP (Invitrogen, Cat #D6567) was added to the reaction and activity was determined by a kinetic read using a microplate reader (Envision, Perkin-Elmer or Spectramax M5, Molecular Devices). The excitation and emission wavelengths were 340 nm and 450 nm, respectively. Initial rates were determined from a linear fit of the data, and the inhibitor dose response curves were analyzed using normalized IC50 regression curve fitting with control based normalization.

IC50: < 50 nM
Structure (SMILES): Cc1nc(N2CCC3(CC2)CO[C@@H](C)[C@H]3N)n2ccnc2c1-c1ccc2nccnc2c1
